Source: patent publication US9925153B2, “Therapeutic agents for skin diseases and conditions” (STC.UNM, priority 2013, dated 2018)
“Also recorded” adds a separate entry of the source. Where two headings read alike, the source gives them in different places. Each block holds one compound with its values, some of them ahead of it.

Columns and labels:
[1] = system: NF-κB; test: Inhibition of TNFα-induced activation of NF-κB, 293T/NF-κB-luc luciferase reporter cells; type: cell-based, human; settings: for Activity as inhibitor of TNFα-induced activation of NF-κB in the screen, in words: screened at 15 μM, compared to resveratrol; for IC50: Homo sapiens, HEK-293T
Protocol: The cells were maintained in Dulbecco's Modified Eagle's Medium (DMEM—high glucose containing 4 mM glutamine) supplemented with 10% fetal bovine serum (FBS), 1 mM sodium pyruvate, 100 units/ml penicillin, 100 μg/ml streptomycin and 100 μg/ml hygromycin (Gibco/Invitrogen, Carlsbad, Calif.) to maintain cell selection. […] The following day cells were fed fresh media 1 hour prior to treatment. […] Plate wells were gently washed with phosphate buffered saline, pH 7.4, and lysed with 1× passive lysis buffer (Promega, Madison, Wis.). The subsequent lysates were analyzed with the Luciferase Assay System (Promega) utilizing a TD-20/20 luminometer (Turner Designs, Sunnyvale, Calif.). The firefly luciferase relative light units were normalized to protein (mg/ml) with BCA™ Protein Assay Kit (Pierce, Rockford, Ill.) and standardized to percent of control (TNFα control).

[2] = TRAP anti-oxidant assay (quenching of ABTS radical cation)
From the text: (§1) The total radical-trapping anti-oxidant parameter assay (TRAP assay) measures the ability of an analog to react with the pre-formed radical monocation of 2,2′-azinobis-(3-ethylbenzothiazoline-6-sulfonic acid) (ABTS.^+). The ferric reducing/anti-oxidant power assay (FRAP assay) measures the ability of an analog to reduce a ferric tripyridyltriazine complex.
(§2) In both colorimetric assays, the vitamin E analog Trolox was used as a control.
(§3) The anti-oxidant activities of certain stilbene analogs according to the present invention were determined using two standard assays. See, Schlesier, et al., Free Rad Res. 2002; 36:177-187. The total radical-trapping anti-oxidant parameter assay (TRAP assay) measures the ability of an analog to react with the pre-formed radical monocation of 2,2′-azinobis-(3-ethylbenzothiazoline-6-sulfonic acid) (ABTS.^+). See, Re, et al., Free Rad Biol Med, 26:1231-1237 (1999). […] The activities of curcumin and analogs were determined by their abilities to quench the color of the radical cation. […] The ferric complex of 2,4,6-tripyridyl-s-triazine was prepared at acidic pH, and the anti-oxidant activities of curcumin and analogs were determined by their abilities to reduce the ferric complex to the ferrous complex, monitored by formation of the ferrous complex at 593 nm. […]

[3] = FRAP anti-oxidant assay (reduction of ferric tripyridyltriazine complex)
From the text: as §1, §2, §3

[4] = system: COX-2 mRNA; test: Inhibition of LPS-induced COX-2 mRNA expression in BV-2 microglial cells (qRT-PCR); type: cell-based, mouse; settings: BV-2 cells, LPS 0.2 μg/ml, 24 hours; for Inhibition of LPS-induced COX-2 mRNA, in words: 0.15 μM
[5] = system: AP-1; test: Inhibition of TPA-induced activation of AP-1, 293T/AP-1-luc luciferase reporter cells; type: cell-based, human; settings: for IC50: Homo sapiens
Protocol: An AP-1 reporter stable cell line derived from human 293T embryonic kidney cells transfected with a luciferase reporter construct containing three AP-1 binding sites in the promoter (293T/AP-1-luc, Panomics, Inc., Redwood City, Calif.) was grown in a humidified atmosphere at 37° C. in 5% CO2/95% air. The cells were maintained in Dulbecco's Modified Eagle's Medium (DMEM—high glucose containing 4 mM glutamine) supplemented with 10% fetal bovine serum (FBS), 1 mM sodium pyruvate, 100 units/ml penicillin, 100 μg/ml streptomycin and 100 μg/ml hygromycin (Gibco/Invitrogen, Carlsbad, Calif.) to maintain cell selection. One day prior to treatment, the 293T/AP-1-luc cells were plated into 24-well cell culture plates (Costar, Cambridge, Mass.) in the above media without hygromycin. The following day, the cells, which were at approximately 60% confluency, were fed fresh media with or without TPA, 10 ng/ml, (Calbiochem) and immediately treated with curcumin or analog prepared in DMSO stock solutions. The cells were placed again in a humidified atmosphere at 37° C. in 5% CO2/95% air for 24 hours. Plate wells were gently washed with phosphate buffered saline, pH 7.4, and lysed with Ix passive lysis buffer (Promega, Madison, Wis.). The subsequent lysates were analyzed with the Luciferase Assay System (Promega) utilizing a TD-20/20 luminometer (Turner Designs, Sunnyvale, Calif.). The firefly luciferase relative light units were normalized to protein (mg/ml) with BCA Protein Assay Kit (Pierce, Rockford, Ill.) and standardized to percent of control (TPA control).

[6] = Treatment of dogs with inflammatory skin conditions with LD55; type: in vivo, dog
From the text: (§4) Table 3 summarizes the results from consecutive treatment with LD55 of dogs and cats with inflammatory skin conditions, where LD55 was applied as a 1% lotion.

[7] = Treatment of cats with inflammatory skin conditions with LD55; type: in vivo, cat; settings: for outcome: Feline
From the text: as §4

[8] = transgenic model of Alzheimer's disease (ref. 10); cited from earlier work
[9] = system: NF-κB; settings: literature (ref. 35); cited from earlier work
[10] = 7 h, 293T/NF-κB-luc cells, TNFα 20 ng/ml, 7 hours, triplicate, read-out: IC50 for inhibition of the TNFα-induced activation of NFκB

SMILES: COc1ccc(/C=C/c2ccccc2)cc1 [4b, (E)-4-Methoxystilbene]
Activity as inhibitor of TNFα-induced activation of NF-κB in the screen, in words [1]: especially active

IC50 [1, 10]: 150 nM
SMILES: CN(C)c1ccc(/C=C/c2ccccc2)cc1 [4cc, (E)-4-N,N-Dimethylaminostilbene]
Anti-oxidant activity in the TRAP assay, in words [2]: retained anti-oxidant activity; also recorded: exhibits anti-oxidant activity
Anti-oxidant activity in the FRAP assay, in words [3]: retained anti-oxidant activity; also recorded: exhibits anti-oxidant activity
Inhibition of LPS-induced COX-2 mRNA, in words [4]: almost as effective as 4 μM resveratrol

SMILES: COc1cccc(/C=C/c2ccccc2)c1OC [4o, (E)-2,3-Dimethoxystilbene]
Activity as inhibitor of TNFα-induced activation of NF-κB in the screen, in words [1]: retained very little activity

SMILES: COc1ccc(/C=C/c2ccccc2)cc1O [4s, (E)-3-Hydroxy-4-methoxystilbene]
Activity as inhibitor of TNFα-induced activation of NF-κB in the screen, in words [1]: considerably more active than resveratrol

SMILES: COc1ccc(/C=C/c2ccccc2)c(OC)c1 [4u, (E)-2,4-Dimethoxystilbene]
Activity as inhibitor of TNFα-induced activation of NF-κB in the screen, in words [1]: especially active

SMILES: COc1ccc(/C=C/c2ccc(OC)cc2)cc1 [6b, (E)-4,4′-Dimethoxystilbene]
Activity as inhibitor of TNFα-induced activation of NF-κB in the screen, in words [1]: retained very little activity

IC50 [1, 10]: 900 ± 100 nM
SMILES: COc1ccc(/C=C/c2ccc(C)cc2)cc1 [6d, (E)-4′-Methoxy-4-methylstilbene]

SMILES: COc1ccc(/C=C/c2cc(OC)cc(OC)c2)cc1 [6f, (E)-3,4′,5-Trimethoxystilbene]
Activity as inhibitor of TNFα-induced activation of NF-κB in the screen, in words [1]: especially active
IC50 ([5]; 24 h, read-out: IC50 for inhibition of the TPA-induced activation of AP-1): 3800 ± 1100 nM

IC50 [1, 10]: 1000 ± 100 nM
SMILES: COc1ccc(/C=C/c2cccc(Cl)c2)cc1 [6h, (E)-3-Chloro-4′-methoxystilbene]

IC50 [1, 10]: 800 ± 200 nM
SMILES: COc1ccc(/C=C/c2cccc(C)c2)cc1 [6i, (E)-4′-Methoxy-3-methylstilbene]

IC50 [1, 10]: 1500 ± 30 nM
SMILES: COc1ccc(/C=C/c2ccccc2Cl)cc1 [6j, (E)-2-Chloro-4′-methoxystilbene]

SMILES: COc1ccc(/C=C/c2cccc(OC)c2OC)cc1 [6o, (E)-2,3,4′-Trimethoxystilbene]
Activity as inhibitor of TNFα-induced activation of NF-κB in the screen, in words [1]: especially active

SMILES: COc1ccc(/C=C/c2ccccc2F)cc1 [6p, (E)-2-Fluoro-4′-methoxystilbene]
IC50 [1, 10]: 150 nM
Anti-oxidant activity in the TRAP assay, in words [2]: does not exhibit anti-oxidant activity
Anti-oxidant activity in the FRAP assay, in words [3]: does not exhibit anti-oxidant activity
Inhibition of LPS-induced COX-2 mRNA, in words [4]: almost as effective as 4 μM resveratrol
outcome ([6]; K9, Pempigus, 1% lotion): positive
outcome ([6]; K9, atopy, 1% lotion): positive
outcome ([6]; K9, hemangiosarcoma, 1% lotion): positive
outcome ([6]; K9, hot spot, 1% lotion): positive
outcome ([6]; K9, peri-analfistual, 1% lotion): positive
Nasal planum lesion after treatment ([6]; animal 1139, daily application, after 10 applications): the region was healing, the dried, flaking skin was gone and there was no bleeding
Peri-anal fistula healing ([6]; animal 3688, LD55 with combinations of standard forms of treatment, two weeks): nearly resulted in the fistula healing and closing
Inflammatory component of pathology (redness/itching, discomfort) ([6]; dogs, 1% lotion, all treated animals except two dogs with unknown outcome): marked improvement
outcome ([7]; atopy/ears, 1% lotion): positive
outcome ([7]; squamous cell carcinoma, 1% lotion): positive
Time for redness to disappear ([7]; animal 255, severe allergies, ears and face, applied twice a day): ≤ 24 h
Inflammatory component of pathology (redness/itching, discomfort) ([7]; cats, 1% lotion): marked improvement
Ability to prevent brain inflammation and plaque accumulation [8]: effective

IC50 [1, 10]: 600 ± 100 nM
SMILES: COc1ccc(/C=C/c2cccc(OC)c2)cc1 [6r, (E)-3,4′-Dimethoxystilbene]
Activity as inhibitor of TNFα-induced activation of NF-κB in the screen, in words [1]: especially active; also recorded: highly active

IC50 [1, 10]: 600 ± 400 nM
SMILES: COc1ccc(/C=C/c2ccc(O)c(O)c2)cc1 [6x, (E)-3,4-Dihydroxy-4′-methoxystilbene]
Activity as inhibitor of TNFα-induced activation of NF-κB in the screen, in words [1]: considerably more active than resveratrol

IC50 ([1]; TNFα-induced activation of NF-κB, Panomics reporter screening cells, read-out: NFκB IC50 (Tables 1A and 2A)): 3900 ± 300 nM
IC50 ([5]; AP1, TPA-induced activation of AP-1, Panomics reporter screening cells, read-out: AP-1 IC50 (Tables 1A and 2A)): 8200 ± 300 nM
SMILES: O=C(/C=C/c1ccncc1)/C=C/c1ccncc1 [reference compound]

SMILES: Oc1ccc(/C=C/c2cc(O)cc(O)c2)cc1 [resveratrol, 3,4′,5-trihydroxystilbene, reference compound]
IC50 [1, 10]: 20000 ± 3000 nM
Inhibition of LPS-induced COX-2 mRNA ([4]; 4 μM): about 50%
Suppression of LPS-induced COX-2 mRNA ([4]; 20 μM): markedly suppressed
Effect on TPA-induced AP-1 activation, in words ([5]; 293T/AP-1-luc cells, TPA 10 ng/ml, 24 hours): activated

SMILES: C(=Cc1ccccc1)c1ccccc1 [stilbene]
Inhibition of TNF-induced activation of NF-κB [9]: inactive
